In brackets after ≈: the same amount, converted by molar mass. Where two headings read alike, the source gives them in different places.
Tests used:
Format in all cases: cell-based
[1] = system: Streptococcus pyogenes 1079; assay: MIC, microtiter broth dilution (NCCLS M100-S14), S. pyogenes 1079 (ermB)
Procedure, shortened: (§1)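 Microtiter broth dilution; interpretation per NCCLS M100-S14; endpoint = MIC. Stock: 40 mg/ml in DMSO.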

[2] = system: Streptococcus pneumoniae 1175; details: microtiter broth dilution
Procedure, shortened: as §1

[3] = system: Streptococcus pneumoniae 1095; details: microtiter broth dilution
Procedure, shortened: as §1

[4] = system: Streptococcus pneumoniae 1016; assay: MIC, microtiter broth dilution (NCCLS M100-S14), S. pneumoniae 1016 (susceptible)
Procedure, shortened: as §1

[5] = system: Haemophilus influenzae 1218; assay: MIC, microtiter broth dilution (NCCLS M100-S14), H. influenzae 1218 (susceptible)
Procedure, shortened: as §1

[6] = S. pneumoniae 1016 (susceptible)
[7] = H. influenzae 1218 (susceptible)

Row | SMILES | MIC S. pyogenes 1079 ([1]; S. pyogenes 1079 (ermB)) | MIC S. pneumo. 1175 ([2]; S. pneumoniae 1175 (mefA)) | MIC S. pneumo. 1095 ([3]; S. pneumoniae 1095 (ermB)) | MIC S. pneumo. 1016 [4, 6] | MIC H. influenzae 1218 [5, 7] | MIC S. pyogenes 1079 ([1]; Streptococcus pyogenes 1079) | MIC S. pneumo. 1175 ([2]; Streptococcus pneumoniae 1175) | MIC S. pneumo. 1095 ([3]; Streptococcus pneumoniae 1095) | MIC S. pneumo. 1016 ([4]; Streptococcus pneumoniae 1016) | MIC H. influenzae 1218 ([5]; Haemophilus influenzae 1218)
1 | CCC1OC(=O)C(C)C(=O)C(C)C(OC2OC(C)CC(N(C)C)C2O)C(C)(OC)CC(C)C(=O)C(C)C2N(CC3CCN(Cc4cnn(-c5cccnc5)c4)C3)C(=O)OC12C (stereo not drawn) [11.15] | 64 µg/mL (≈ 75 µM) | 0.5 µg/mL (≈ 0.586 µM) | <0.06 µg/mL | <0.06 µg/mL | 2 µg/mL (≈ 2.34 µM) | – | – | – | – | –
2 | CCC1OC(=O)C(C)C(=O)C(C)C(OC2OC(C)CC(N(C)C)C2O)C(C)(OC)CC(C)C(=O)C(C)C2N(C3CN(C(C)c4ccnc5cccnc45)C3)C(=O)OC12C (stereo not drawn) [Example 1.37, 3-descladinosyl-11,12-dideoxy-6-O-methyl-3-oxo-12,11-(oxycarbonyl-(1-(1R-(1,5-naphthyridin-4-yl)-ethyl)-azetidin-3-yl)-imino)erythromycin A] | – | – | – | – | – | 4 µg/mL (≈ 4.85 µM) | 0.25 µg/mL (≈ 0.303 µM) | <0.06 µg/mL | <0.06 µg/mL | 1 µg/mL (≈ 1.21 µM)
3 | CCC1OC(=O)C(C)C(=O)C(C)C(OC2OC(C)CC(N(C)C)C2O)C(C)(OC)CC(C)C(=O)C(C)C2N(C3CN(Cc4ccnc5[nH]c(C6CC6)nc45)C3)C(=O)OC12C (stereo not drawn) [Example 1.89, 3-descladinosyl-11,12-dideoxy-6-O-methyl-3-oxo-12,11-(oxycarbonyl-(1-(2-cyclopropyl-3H-imidazo[4,5-b]pyridine-7-methyl)-azetidin-3-yl)-imino)-erythromycin A] | – | – | – | – | – | 1 µg/mL (≈ 1.19 µM) | <0.063 µg/mL | 0.5 µg/mL (≈ 0.596 µM) | <0.063 µg/mL | 4 µg/mL (≈ 4.77 µM)
4 | CCC1OC(=O)C(C)C(=O)C(C)C(OC2OC(C)CC(N(C)C)C2O)C(C)(OC)CC(C)C(=O)C(C)C2N(C3CN(S(=O)(=O)c4cccc5nonc45)C3)C(=O)OC12C (stereo not drawn) [Example 3.05] | – | – | – | – | – | 16 µg/mL (≈ 18.8 µM) | <0.06 µg/mL | 2 µg/mL (≈ 2.35 µM) | <0.06 µg/mL | 0.25 µg/mL (≈ 0.294 µM)
5 | CCC1OC(=O)C(C)C(=O)C(C)C(OC2OC(C)CC(N(C)C)C2O)C(C)(OC)CC(C)C(=O)C(C)C2N(C3CN(C(=O)Nc4ccc5ccccc5c4)C3)C(=O)OC12C (stereo not drawn) [Example 2.04] | – | – | – | – | – | 32 µg/mL (≈ 38.2 µM) | <0.06 µg/mL | 8 µg/mL (≈ 9.56 µM) | <0.06 µg/mL | 8 µg/mL (≈ 9.56 µM)
6 | CCC1OC(=O)C(C)C(=O)C(C)C(OC2OC(C)CC(N(C)C)C2O)C(C)(OC)CC(C)C(=O)C(C)C2N(C3CN(Cc4ccnc5ccccc45)C3)C(=O)OC12C (stereo not drawn) [Example 1.16, 3-descladinosyl-11,12-dideoxy-6-O-methyl-3-oxo-12,11-(oxycarbonyl-(1-((quinolin-4-yl)-methyl)-azetidin-3-yl)-imino)-erythromycin A] | – | – | – | – | – | 4.25 µg/mL (≈ 5.25 µM) | 0.25 µg/mL (≈ 0.309 µM) | <0.06 µg/mL | <0.06 µg/mL | 0.5 µg/mL (≈ 0.618 µM)
7 | CCC1OC(=O)C(C)C(=O)C(C)C(OC2OC(C)CC(N(C)C)C2O)C(C)(OC)CC(C)C(=O)C(C)C2N(CC3CN(C(=O)c4cc5ccccc5cn4)C3)C(=O)OC12C.O=CO (stereo not drawn) [4.39] | – | – | – | – | – | >64.00 µg/mL | <0.06 µg/mL | 8 µg/mL | <0.06 µg/mL | 4 µg/mL
8 | CCC1OC(=O)C(C)C(=O)C(C)C(OC2OC(C)CC(N(C)C)C2O)C(C)(OC)CC(C)C(=O)C(C)C2N(CC3CN(Cc4ccn(-c5ccccn5)n4)C3)C(=O)OC12C.O=CO (stereo not drawn) [4.31] | – | – | – | – | – | >64.00 µg/mL | <0.06 µg/mL | 32 µg/mL | <0.06 µg/mL | 0.5 µg/mL
9 | CCC1OC(=O)C(C)C(=O)C(C)C(OC2OC(C)CC(N(C)C)C2O)C(C)(OC)CC(C)C(=O)C(C)C2N(C3CN(S(=O)(=O)c4ccc(-c5nncs5)cc4)C3)C(=O)OC12C (stereo not drawn) [Example 3.76, 3-descladinosyl-11,12-dideoxy-6-O-methyl-3-oxo-12,11-(oxycarbonyl-(1-(4-(1,3,4-thiadiazol-2-yl)benzenesulfonyl)-azetidin-3-yl)-imino)-erythromycin A] | – | – | – | – | – | 0.12 µg/mL (≈ 0.135 µM) | <0.06 µg/mL | <0.06 µg/mL | <0.06 µg/mL | 0.5 µg/mL (≈ 0.56 µM)
10 | CCC1OC(=O)C(C)C(=O)C(C)C(OC2OC(C)CC(N(C)C)C2O)C(C)(OC)CC(C)C(=O)C(C)C2N(CC3CCCN3C(=O)c3cnn4ccccc34)C(=O)OC12C (stereo not drawn) [10.45] | >64.00 µg/mL | <0.06 µg/mL | <0.06 µg/mL | <0.06 µg/mL | 1 µg/mL (≈ 1.19 µM) | – | – | – | – | –
11 | CCC1OC(=O)C(C)C(=O)C(C)C(OC2OC(C)CC(N(C)C)C2O)C(C)(OC)CC(C)C(=O)C(C)C2N(C3CN(Cc4cccc(C#N)c4)C3)C(=O)OC12C (stereo not drawn) [Example 1.15, 3-cyanobenzyl] | – | – | – | – | – | >64.00 µg/mL | 0.25 µg/mL (≈ 0.319 µM) | <0.06 µg/mL | <0.06 µg/mL | 0.25 µg/mL (≈ 0.319 µM)
12 | CCC1OC(=O)C(C)C(=O)C(C)C(OC2OC(C)CC(N(C)C)C2O)C(C)(OC)CC(C)C(=O)C(C)C2N(CC3CN(C(=O)c4cncc5ccccc45)C3)C(=O)OC12C.O=CO (stereo not drawn) [4.47] | – | – | – | – | – | >64.00 µg/mL | 0.12 µg/mL | 0.19 µg/mL | <0.06 µg/mL | 0.75 µg/mL
13 | CC[C@H]1OC(=O)[C@H](C)C(=O)[C@H](C)[C@@H](O[C@@H]2O[C@H](C)C[C@H](N(C)C)[C@H]2O)[C@](C)(OC)C[C@@H](C)C(=O)[C@H](C)[C@H]2N(CC3(O)CN(C(=O)c4cncc5ccccc45)C3)C(=O)O[C@]12C [7.23] | >64.00 µg/mL | 0.5 µg/mL (≈ 0.586 µM) | 0.5 µg/mL (≈ 0.586 µM) | <0.06 µg/mL | 2 µg/mL (≈ 2.34 µM) | – | – | – | – | –
14 | CCC1OC(=O)C(C)C(=O)C(C)C(OC2OC(C)CC(N(C)C)C2O)C(C)(OC)CC(C)C(=O)C(C)C2N(C3CN(Cc4cccc(-c5cnco5)c4)C3)C(=O)OC12C (stereo not drawn) [Example 1.47, 3-(oxazol-5-yl)benzyl] | – | – | – | – | – | 64 µg/mL (≈ 77.6 µM) | <0.06 µg/mL | <0.06 µg/mL | <0.06 µg/mL | 0.25 µg/mL (≈ 0.303 µM)
15 | CC[C@H]1OC(=O)[C@H](C)C(=O)[C@H](C)[C@@H](O[C@@H]2O[C@H](C)C[C@H](N(C)C)[C@H]2O)[C@](C)(OC)C[C@@H](C)C(=O)[C@H](C)[C@H]2N(CC3(O)CN(C(=O)c4cc5cccnc5[nH]4)C3)C(=O)O[C@]12C [7.26] | >64.00 µg/mL | 0.25 µg/mL (≈ 0.297 µM) | 0.12 µg/mL (≈ 0.143 µM) | <0.06 µg/mL | 0.5 µg/mL (≈ 0.594 µM) | – | – | – | – | –
16 | CCC1OC(=O)C(C)C(=O)C(C)C(OC2OC(C)CC(N(C)C)C2O)C(C)(OC)CC(C)C(=O)C(C)C2N(C3CN(S(=O)(=O)c4cccc(-c5nnco5)c4)C3)C(=O)OC12C (stereo not drawn) [Example 3.62, 3-descladinosyl-11,12-dideoxy-6-O-methyl-3-oxo-12,11-(oxycarbonyl-(1-(3-(1,3,4-oxadiazol-2-yl)benzenesulfonyl)-azetidin-3-yl)-imino)erythromycin A] | – | – | – | – | – | 8 µg/mL (≈ 9.13 µM) | 0.5 µg/mL (≈ 0.571 µM) | <0.06 µg/mL | <0.06 µg/mL | 2 µg/mL (≈ 2.28 µM)
17 | CCC1OC(=O)C(C)C(=O)C(C)C(OC2OC(C)CC(N(C)C)C2O)C(C)(OC)CC(C)C(=O)C(C)C2N(CC3CCCN3C(=O)c3cn4cccnc4n3)C(=O)OC12C (stereo not drawn) [10.43] | >64.00 µg/mL | 0.25 µg/mL (≈ 0.297 µM) | <0.06 µg/mL | <0.06 µg/mL | 1 µg/mL (≈ 1.19 µM) | – | – | – | – | –
18 | CCC1OC(=O)C(C)C(=O)C(C)C(OC2OC(C)CC(N(C)C)C2O)C(C)(OC)CC(C)C(=O)C(C)C2N(CC3CCN(Cc4c[nH]c5cnccc45)C3)C(=O)OC12C (stereo not drawn) [13.03] | >64.00 µg/mL | 4 µg/mL (≈ 4.84 µM) | 1 µg/mL (≈ 1.21 µM) | <0.06 µg/mL | 2 µg/mL (≈ 2.42 µM) | – | – | – | – | –
